Laboratory results as given in PubChem BioAssay AID2060604 (Molecular Pharmacology Branch, DTP, NCI, 2025).

System: 379773-124-R-J2-PDC complex spheroids, viability % test/control
Assay: Anticancer human tumor 379773-124-R-J2-PDC patient-derived endometrial carcinoma cell line growth inhibition [CLK]
Conditions: for IC50: curve of first compound; for viability, T/C: stronger effect = lower value; active = viability on the fitted dose curve at most 10% of control; inactive = the rest
Outline: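 Patient-derived tumor cells grown as complex spheroids with HUVEC endothelial cells and mesenchymal stem cells, treated with drug combinations. Concentrations descend in half-log steps from near clinical Cmax, or from 10 microM if Cmax unknown.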

[1] = second compound 0.0316 µM, first compound 0.0316 µM
[2] = second compound 0.0316 µM, first compound 0.1 µM
[3] = second compound 0.0316 µM, first compound 0.316 µM
[4] = second compound 0.0316 µM, first compound 1 µM
[5] = second compound 0.0316 µM, first compound 3.16 µM
[6] = second compound 0.0316 µM, first compound 10 µM
[7] = second compound 0.1 µM, first compound 0.0316 µM
[8] = second compound 0.1 µM, first compound 0.1 µM
[9] = second compound 0.1 µM, first compound 0.316 µM
[10] = second compound 0.1 µM, first compound 1 µM
[11] = second compound 0.1 µM, first compound 3.16 µM
[12] = second compound 0.1 µM, first compound 10 µM
[13] = second compound 0.316 µM, first compound 0.0316 µM
[14] = second compound 0.316 µM, first compound 0.1 µM
[15] = second compound 0.316 µM, first compound 0.316 µM
[16] = second compound 0.316 µM, first compound 1 µM
[17] = second compound 0.316 µM, first compound 3.16 µM
[18] = second compound 0.316 µM, first compound 10 µM
[19] = second compound 1 µM, first compound 0.0316 µM
[20] = second compound 1 µM, first compound 0.1 µM
[21] = second compound 1 µM, first compound 0.316 µM
[22] = second compound 1 µM, first compound 1 µM
[23] = second compound 1 µM, first compound 3.16 µM
[24] = second compound 1 µM, first compound 10 µM
[25] = second compound 3.16 µM, first compound 0.0316 µM
[26] = second compound 3.16 µM, first compound 0.1 µM
[27] = second compound 3.16 µM, first compound 0.316 µM
[28] = second compound 3.16 µM, first compound 1 µM
[29] = second compound 3.16 µM, first compound 3.16 µM
[30] = second compound 3.16 µM, first compound 10 µM
[31] = second compound 10 µM, first compound 0.0316 µM
[32] = second compound 10 µM, first compound 0.1 µM
[33] = second compound 10 µM, first compound 0.316 µM
[34] = second compound 10 µM, first compound 1 µM
[35] = second compound 10 µM, first compound 3.16 µM
[36] = second compound 10 µM, first compound 10 µM
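Also: compound exposure lasted seven days before the viability readout.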
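For viability, T/C in this document: 100% = DMSO vehicle control wells.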

COc1ccc([C@@H](O)c2cc(-c3ncnc4cc(N5CCOCC5)ccc34)c(F)cc2Cl)nn1 + CNC(=O)c1ccc(Nc2nc(OC3CCCC3)c3c(-c4ccc5nc(C)oc5c4)c[nH]c3n2)c(OC)c1
3420 nM: IC50 (second compound 0.0316 µM)
< 31.6 nM: IC50 (second compound 0.1 µM) | IC50 (second compound 0.316 µM) | IC50 (second compound 1 µM) | IC50 (second compound 3.16 µM) | IC50 (second compound 10 µM)
inactive: viability, T/C [1] 79.2% | viability, T/C [2] 79.9% | viability, T/C [3] 68% | viability, T/C [4] 60.6% | viability, T/C [5] 58.7% | viability, T/C [6] 20.4% | viability, T/C [7] 35.6% | viability, T/C [8] 30.8% | viability, T/C [9] 32.7% | viability, T/C [10] 29.7% | viability, T/C [11] 24% | viability, T/C [12] 12.7% | viability, T/C [13] 45.2% | viability, T/C [14] 38% | viability, T/C [15] 29% | viability, T/C [16] 21.6% | viability, T/C [17] 15.1% | viability, T/C [19] 34.8% | viability, T/C [20] 35% | viability, T/C [21] 32.1% | viability, T/C [22] 25.9% | viability, T/C [23] 14.9% | viability, T/C [25] 34.7% | viability, T/C [26] 32.3% | viability, T/C [27] 27.8% | viability, T/C [28] 19.3% | viability, T/C [29] 15.7% | viability, T/C [31] 32.8% | viability, T/C [32] 33.7% | viability, T/C [33] 23.4% | viability, T/C [34] 17.9% | viability, T/C [35] 14.2%
active: viability, T/C [18] 7.43% | viability, T/C [24] 6.1% | viability, T/C [30] 4.62% | viability, T/C [36] 4.23%

COc1cccc2c1C(=O)c1c(O)c3c(c(O)c1C2=O)CC(O)(C(=O)CO)CC3OC1CC(N)C(O)C(C)O1 (centres undefined) + CNC(=O)c1ccc(Nc2nc(OC3CCCC3)c3c(-c4ccc5nc(C)oc5c4)c[nH]c3n2)c(OC)c1
inactive: viability, T/C [1] 31.1% | viability, T/C [7] 22.6% | viability, T/C [13] 25.9% | viability, T/C [19] 17.8% | viability, T/C [25] 12%
active: viability, T/C [2] 6.01% | viability, T/C [3] 5.35% | viability, T/C [4] 3.7% | viability, T/C [5] 0.43% | viability, T/C [6] 0.22% | viability, T/C [8] 6.93% | viability, T/C [9] 5.94% | viability, T/C [10] 3.46% | viability, T/C [11] 0.36% | viability, T/C [12] 0.17% | viability, T/C [14] 4.93% | viability, T/C [15] 3.63% | viability, T/C [16] 2.73% | viability, T/C [17] 0.13% | viability, T/C [18] 0.11% | viability, T/C [20] 4.68% | viability, T/C [21] 3.73% | viability, T/C [22] 1.18% | viability, T/C [23] 0.15% | viability, T/C [24] 0.06% | viability, T/C [26] 5.12% | viability, T/C [27] 3.67% | viability, T/C [28] 1.27% | viability, T/C [29] 0.08% | viability, T/C [30] 0.12% | viability, T/C [31] 9.36% | viability, T/C [32] 5.57% | viability, T/C [33] 3.11% | viability, T/C [34] 1.07% | viability, T/C [35] 0.14% | viability, T/C [36] 0.23%
< 31.6 nM: IC50 (second compound 0.0316 µM) | IC50 (second compound 0.1 µM) | IC50 (second compound 0.316 µM) | IC50 (second compound 1 µM) | IC50 (second compound 3.16 µM) | IC50 (second compound 10 µM)
